Results reported in publication PMC12029662, “Cytotoxicity Comparison of ^99mTc-Labeled Peptide Antagonist and Agonist Targeting the SSTR2 Receptor in AR42J Cells” (Molecules, 2025).
Where two headings read alike, the source gives them in different places. Positions of bridges follow the written chain, without caps; N, C: chain ends. Non-standard residues stand in square brackets, D forms with d. dPhe(4-NHCONH2) = NC(=O)Nc1ccc(C[C@@H](N)C(=O)O)cc1; Phe(4-Cl) = N[C@@H](Cc1ccc(Cl)cc1)C(=O)O; N4 = N4 chelator for 99mTc

Key:
SSTR2 = biological target: T1, SSTR2 (Rattus norvegicus, UniProt P30680); assay: Saturation binding affinity assay on AR-42-J cells; details: for Specific binding on AR42J cells, antagonist compared with agonist: specific = total minus nonspecific binding, Figure 2
T1 construct: AR-42-J cells were seeded in 6-well plates; host or cells: AR-42-J (AR42J) rat pancreatic tumour cells, intact, no transfection described
Procedure: Figure 2 illustrates the relationship between specific binding and the concentration of the radioconjugates. In Supplementary Materials Figure S1, we included experimental data on total binding and non-specific binding in the presence of a 2000-fold excess of octreotide, which allowed us to determine specific binding.
Following incubation, the cells were washed with PBS, collected into tubes and then lysed twice using 800 μL of 1 M NaOH (for 12-well plate) and 1.5 mL of 1 M NaOH (for 6-well plates). The lysates were collected in separate tubes and radioactivity was measured using Wizard2 gamma counter, PerkinElmer, Waltham, MA, USA. The lysates were transferred to separate tubes and radioactivity was quantified using Wizard2 gamma counter.

AR42J cells [1] = assay: Cytotoxicity studies (MTS assay)
From the text: The properties of agonist octreotide conjugates labeled with the radionuclide ^111In have been studied in several works, primarily for imaging but also for Auger electron therapy. The ^111In not only emits gamma quanta but also produces 7.4 Auger electrons. […] In a few works, Maecke et al. also studied ^111In radioconjugates with SSTR receptor antagonists, but these studies were focused on tumor imaging and the therapeutic effect was not investigated. […] They are easily repairable and the cells could continue to divide.
Figure 4 Cytotoxicity of ^99mTc-labeled SSTR2 receptor agonist TEKTROTYD (left graph) and antagonist TECANT-1 (right graph) for AR42J cells. The data results are expressed in mean ± standard deviation. One-way ANOVA analysis was used for multiple group comparisons, followed by Tukey’s test.
A cytotoxicity assay was performed using the AR42J cell line. A total of 10^4 cells were seeded in 96-well plate and incubated overnight at 37 °C in a 5% CO2 atmosphere. The following day, the medium was removed and the cells were treated with radiocompounds at concentrations of 100, 50, 25, 12.5 MBq/mL The cells were then incubated for 24, 48, and 72 h. At each specified time point, 20 µL of MTS reagent was added to cells and incubated for 2 h. Absorbance at 490 nm was measured to estimate the percentage of cell metabolic activity. […] The average absorbance of these control wells was subtracted from the absorbance of wells containing treated cells.

[2] = reported in multiple studies; cited from earlier work
AR42J cells [3] = assay: Internalization assay (membrane-bound vs internalized fraction); format: cell-based, rat; details: Figure 3
Procedure: Briefly, AR42J cells (7 × 10^5 cells/well) were seeded in 6-well plates and incubated for 2 days. Following this incubation, the cells were washed twice with cold PBS and then treated with 5 nM of tested compounds. To avoid internalization, the cells were incubated at 4 °C for 1 h. Non-specific binding was assessed by adding a 1000-fold molar excess of unlabeled octreotide acetate. After incubation, unbound fraction was collected in tubes, and the cells were washed twice with 1 mL of cold PBS. Fresh medium was then added, and the cells were incubated at 37 °C for up to 24 h. At each time interval, the second medium portion was collected, and cells were washed twice with 1 mL of PBS. Next, the membrane-bound fraction was collected using 0.05 M glycine–HCl buffer (pH 2.8). Finally, the internalized fraction was obtained by lysing the cells with 1.5 mL of 1 M NaOH.

[4] = AR42J cells, MTS, 12.5–100 MBq/mL, Figure 4

T1 sequence (P30680 whole entry): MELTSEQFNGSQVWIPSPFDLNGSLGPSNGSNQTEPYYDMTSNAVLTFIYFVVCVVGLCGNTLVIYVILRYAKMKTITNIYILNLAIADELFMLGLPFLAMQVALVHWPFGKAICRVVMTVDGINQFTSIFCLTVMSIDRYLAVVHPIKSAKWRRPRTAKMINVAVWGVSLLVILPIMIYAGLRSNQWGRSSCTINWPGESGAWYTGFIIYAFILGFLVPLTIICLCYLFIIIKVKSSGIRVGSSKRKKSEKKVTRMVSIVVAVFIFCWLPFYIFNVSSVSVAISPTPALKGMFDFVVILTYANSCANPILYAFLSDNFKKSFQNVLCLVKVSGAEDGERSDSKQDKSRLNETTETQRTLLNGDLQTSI

Substance: N4-p-Cl-Phe-cyclo(D-Cys-Tyr-DAph(Cbm)-Lys-Thr-Cys)-D-Tyr-NH2 (disulfide) [TECANT-1]
- Specific binding on AR42J cells, antagonist compared with agonist (SSTR2): significantly greater
- Cell viability after 72 h compared with earlier time points (AR42J cells [1]; [4]): no such effect was observed

Substance: ^99mTc-EDDA/HYNIC-3Tyr-octreotide (disulfide) [^99mTc-TEKTROTYD]
- Stability in biological fluids, including human serum [2]: high stability
- Cytotoxicity in words (AR42J cells [1]; AR42J cells, MTS assay): slight cytotoxicity
- Cell viability after 72 h compared with earlier time points (AR42J cells [1]; [4]): significant increase in cell viability observed after 72 h

Substance: ^99mTc-N4-p-Cl-Phe-cyclo(D-Cys-Tyr-D-4-amino-Phe(carbamoyl)-Lys-Thr-Cys)D-Tyr- NH2 (disulfide) ({99mTc-N4}-[Phe(4-Cl)][dC]Y[dPhe(4-NHCONH2)]KTC[dY]-NH2; disulfide 2-7; also: 99mTc complex via N4 chelator) [^99mTc-TECANT-1]
- Kd (SSTR2; saturation curves, AR42J cells, 2 h incubation with 0.004–20 nM radiopeptide, non-specific binding with 2000-fold excess of octreotide, gamma counter): 1.5 nM

Substance: ^99mTc-N4-p-Cl-Phe-cyclo(D-Cys-Tyr-D-4-amino-Phe(carbamoyl)-Lys-Thr-Cys)D-Tyr- NH2 (disulfide) [^99mTc-TECANT-1]
- Cellular localization in words (AR42J cells [3]): most of the radioconjugate is accumulated in the cell membrane
- Specific binding on AR42J cells, antagonist compared with agonist (SSTR2): greater binding
- Cytotoxicity in words (AR42J cells [1]): significantly enhanced cytotoxic effect
- Toxicity of antagonist relative to agonist (AR42J cells [1]; AR42J cells, MTS, 12.5–100 MBq/mL, 24, 48, 72 h, Figure 4): two to three times higher
